Measurements: article PMC4115637 (Pharmacology Research & Perspectives, 2014)
Changes are numbered by the printed parent chain. Counter-ions that a name gives are not always drawn. Like-named read-outs stand apart in the source and are kept apart here.

Experiments:
[1] = biological target: T1, human TRPV3 (Homo sapiens, UniProt Q8NET8); assay: Re-evaluation of screening hits as TRPV3 agonists; assay type: cell-based; details: Table 1
T1 sequence (Q8NET8 1-790): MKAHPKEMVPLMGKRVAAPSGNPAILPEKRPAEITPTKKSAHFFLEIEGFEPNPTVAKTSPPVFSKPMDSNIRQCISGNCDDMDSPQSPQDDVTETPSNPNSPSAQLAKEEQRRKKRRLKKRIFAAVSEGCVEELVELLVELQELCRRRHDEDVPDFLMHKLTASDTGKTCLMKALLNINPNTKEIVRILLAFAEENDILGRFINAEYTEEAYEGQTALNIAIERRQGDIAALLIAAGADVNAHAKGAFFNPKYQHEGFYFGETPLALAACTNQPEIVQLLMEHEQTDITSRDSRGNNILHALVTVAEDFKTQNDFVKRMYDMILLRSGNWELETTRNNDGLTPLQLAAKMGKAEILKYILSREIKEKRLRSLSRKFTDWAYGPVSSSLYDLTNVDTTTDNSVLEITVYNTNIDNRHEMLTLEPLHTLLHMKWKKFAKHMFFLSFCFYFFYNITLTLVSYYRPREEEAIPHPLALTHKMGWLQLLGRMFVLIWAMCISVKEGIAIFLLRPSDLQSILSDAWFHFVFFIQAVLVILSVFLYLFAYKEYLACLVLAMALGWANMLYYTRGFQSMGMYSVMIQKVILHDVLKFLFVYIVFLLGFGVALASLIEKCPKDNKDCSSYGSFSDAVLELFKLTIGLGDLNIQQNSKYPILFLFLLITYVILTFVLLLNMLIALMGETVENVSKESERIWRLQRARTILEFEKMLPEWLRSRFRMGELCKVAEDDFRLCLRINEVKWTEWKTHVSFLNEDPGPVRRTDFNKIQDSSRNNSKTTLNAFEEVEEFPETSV

[2] = biological target: T1, human TRPV3; assay: Re-evaluation of screening hits as TRPV3 antagonists; assay type: cell-based; details: Table 2; selectivity versus other TRP channel overexpressing HEK-293 lines
[3] = biological target: T1, human TRPV3; assay: Inhibition of agonist-induced calcium flux in TRPV3 overexpressing HEK-293 cells; assay type: cell-based; details: all three agonists (drofenine, carvacrol, 2-APB)
[4] = biological target: human TRPV1 (Homo sapiens, UniProt Q8NER1); assay: Calcium flux in HEK-293 cells overexpressing TRPV1; assay type: cell-based; details: Table 2 comment
[5] = biological target: T1, human TRPV3; assay: Calcium flux in TRPV3 overexpressing HEK-293 cells; assay type: cell-based
[6] = biological target: T2, TRPV3-H426N (Homo sapiens, UniProt Q8NET8, H426N); assay: Calcium flux in HEK-293 cells transiently transfected with TRPV3-H426N; assay type: cell-based; details: agonist 100 μmol/L
T2 sequence (Q8NET8 1-790 H426N): T1 sequence (Q8NET8 1-790) with H426N

[7] = biological target: T3, TRPV3-R696K (Homo sapiens, UniProt Q8NET8, R696K); assay: Calcium flux in HEK-293 cells transiently transfected with TRPV3-R696K; assay type: cell-based; details: 100 μmol/L carvacrol, 100 μmol/L 2-APB, 100 and 200 μmol/L drofenine
T3 sequence (Q8NET8 1-790 R696K): T1 sequence (Q8NET8 1-790) with R696K

[8] = biological target: T4, TRPV3 in HaCaT cells (Homo sapiens, UniProt Q8NET8); assay: Calcium flux in HaCaT cells; assay type: cell-based
T4 sequence (Q8NET8 1-790): T1 sequence (Q8NET8 1-790)

[9] = test system: TRPV3; details: cited from earlier work; for EC50: depending on the model used
[10] = test system: HaCaT cells; assay: Cell viability assay; assay type: cell-based, human; details: data not shown

human TRPV1, sequence (Q8NER1 whole entry): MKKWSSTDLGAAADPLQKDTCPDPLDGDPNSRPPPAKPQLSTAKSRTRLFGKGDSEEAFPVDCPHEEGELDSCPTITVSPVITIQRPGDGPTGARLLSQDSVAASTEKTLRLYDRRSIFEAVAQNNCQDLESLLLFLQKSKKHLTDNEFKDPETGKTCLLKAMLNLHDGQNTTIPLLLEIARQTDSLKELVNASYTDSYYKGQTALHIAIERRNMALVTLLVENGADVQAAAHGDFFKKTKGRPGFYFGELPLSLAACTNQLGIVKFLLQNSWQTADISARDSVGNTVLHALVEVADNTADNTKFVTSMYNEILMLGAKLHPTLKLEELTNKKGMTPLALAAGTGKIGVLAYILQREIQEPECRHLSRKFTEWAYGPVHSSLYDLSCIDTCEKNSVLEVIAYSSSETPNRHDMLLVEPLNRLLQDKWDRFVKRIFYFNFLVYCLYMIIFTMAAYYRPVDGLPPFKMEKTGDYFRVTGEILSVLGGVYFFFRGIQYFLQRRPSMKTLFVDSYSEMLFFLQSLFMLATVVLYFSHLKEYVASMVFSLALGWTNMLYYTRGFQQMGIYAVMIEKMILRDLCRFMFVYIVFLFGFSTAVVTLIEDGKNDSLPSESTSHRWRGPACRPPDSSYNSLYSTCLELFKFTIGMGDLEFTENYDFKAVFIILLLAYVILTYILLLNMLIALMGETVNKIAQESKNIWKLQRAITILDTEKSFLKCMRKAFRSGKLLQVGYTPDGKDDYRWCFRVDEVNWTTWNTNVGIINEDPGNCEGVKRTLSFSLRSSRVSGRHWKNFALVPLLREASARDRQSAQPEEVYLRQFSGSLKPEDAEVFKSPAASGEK

CC(=O)Nc1ccccc1 [Acetanilide]
Comment(s): re-evaluation as TRPV3 agonist [1]: Inactive in confirmation assay

CC(=O)OCC[N+](C)(C)C [Acetylcholine]
Comment(s): re-evaluation as TRPV3 agonist [1]: Nonselective; HEK-293 response

CCCCCCc1ccc(O)cc1O.Nc1c2ccccc2nc2ccccc12 [Acrisorcin]
Comment(s): re-evaluation as TRPV3 agonist [1]: 4-Hexylresorcinol inactive as TRPV3 agonist; 9-aminoacridine fluorescence interference

CC(C)COCC(CN(Cc1ccccc1)c1ccccc1)N1CCCC1.Cl.O (centres unmarked) [Bepradil HCl]
Comment(s): re-evaluation as TRPV3 agonist [1]: Inactive in confirmation assay

C[N+](C)(C)CCOC(N)=O [Carbachol]
Comment(s): re-evaluation as TRPV3 agonist [1]: Nonselective; HEK-293 response

O=C(N[C@H](CO)[C@H](O)c1ccc([N+](=O)[O-])cc1)C(Cl)Cl [Chloramphenicol]
Comment(s): re-evaluation as TRPV3 antagonist [2]: Not inhibitory on rescreen

CCCCOc1ccc(C(=O)CCN2CCCCC2)cc1 [Dyclonine HCl]
Comment(s): re-evaluation as TRPV3 antagonist [2]: Not inhibitory on rescreen

CC[C@H]1OC(=O)[C@H](C)[C@@H](O[C@H]2C[C@@](C)(OC)[C@@H](O)[C@H](C)O2)[C@H](C)[C@@H](O[C@@H]2O[C@H](C)C[C@H](N(C)C)[C@H]2O)[C@](C)(O)C[C@@H](C)C(=O)[C@H](C)[C@@H](O)[C@]1(C)O [Erythromycin]
Comment(s): re-evaluation as TRPV3 antagonist [2]: Not inhibitory on rescreen

COc1cc([C@@H]2c3cc4c(cc3[C@@H](O[C@@H]3O[C@@H]5CO[C@@H](C)O[C@H]5[C@H](O)[C@H]3O)[C@H]3COC(=O)[C@H]23)OCO4)cc(OC)c1O [Etoposide]
Comment(s): re-evaluation as TRPV3 antagonist [2]: Cytotoxic, false positive

O=C(O)c1ccccc1Nc1cccc(C(F)(F)F)c1 [Flufenamic acid]
Comment(s): re-evaluation as TRPV3 antagonist [2]: Nonselective; also inhibited TRPV1

CC(=O)OC(C)C[N+](C)(C)C (centres unmarked) [Methacholine]
Comment(s): re-evaluation as TRPV3 agonist [1]: Nonselective; HEK-293 response

CN[C@@H]1[C@H](O)[C@H](NC)[C@H]2O[C@@]3(O)C(=O)C[C@@H](C)O[C@H]3O[C@@H]2[C@H]1O.Cl.Cl.O.O.O.O.O [Spectinomycin HCl]
Comment(s): re-evaluation as TRPV3 antagonist [2]: Not inhibitory on rescreen

O=C1C(CC[S+]([O-])c2ccccc2)C(=O)N(c2ccccc2)N1c1ccccc1 (centres unmarked) [Sulfinpyrazone]
Comment(s): re-evaluation as TRPV3 antagonist [2]: Not inhibitory on rescreen

Cc1cccc2c1N(C(=O)CSc1ccc(C(F)(F)F)cn1)CCC2 [TRPV3 antagonist, 2-(5-trifluoromethyl-pyridine-2ylsulfanyl)-1-(8-methyl-3,4-dihydro-2H-quinolin-1-yl)-ethanone]
IC50 [3]: 1 to 3 µM

CCCCNc1ccc(C(=O)OCCN(C)C)cc1 [Tetracaine HCl]
concentration of apparent TRPV1 agonist activity [4]: < 25 µmol/L | Comment(s): re-evaluation as TRPV3 antagonist [2]: inhibited TRPA1>V3=V1

CC(=O)CC(c1ccccc1)c1c(O)c2ccccc2oc1=O (centres unmarked) [Warfarin]
Comment(s): re-evaluation as TRPV3 antagonist [2]: Nonselective; also inhibited TRPV1

Cc1ccc(C(C)C)cc1O [carvacrol]
EC50 [5]: 438 µM | calcium flux in TRPV3-H426N relative to TRPV3-WT [6]: no effect | calcium flux in TRPV3-R696K [7]: diminished-to-no-function | EC50 [8]: > 1000 µM

Cc1ccc(C(C)(C)C)c(O)c1 [cresol, 6-tert-butyl-m-cresol]
EC50 ([9]; ref Vogt-Eisele et al. [2007]): > 6000 µM

CC(C)=CCC/C(C)=C/CC/C(C)=C/COP(=O)(O)OP(=O)(O)O [farnesyl pyrophosphate]
EC50 ([9]; ref Bang et al. [2010]): ~0.13 µM

O=C1NC(c2cccc([N+](=O)[O-])c2)=CCN1c1ccccc1O [icilin]
cytotoxicity [10]: potently cytotoxic | inhibition of TRPV3 ([9]; ref Sherkheli et al. [2012]): inhibits TRPV3 at low micromolar concentrations

Acriflavinium HCl
Comment(s): re-evaluation as TRPV3 agonist [1]: Fluorescence interference
